Where “and” joins values, the source holds several entries; their conditions need not be identical. Equal entries are not always repeated.
Columns and labels:
Test in all cases: KINOMEscan competition binding
Settings in all cases: compound 10.0 µM
RIPK2 (human) = RIPK2 (human) (UniProt O43353)
[1] = target: JAK1 JH1 catalytic (human) (UniProt P23458)
IKBKB (human) = IKBKB (human) (UniProt O14920)
NLK (human) = NLK (human) (UniProt Q9UBE8)
MELK (human) = MELK (human) (UniProt Q14680)
PAK6 (human) = PAK6 (human) (UniProt Q9NQU5)
MAP2K3 (human) = MAP2K3 (human) (UniProt P46734)
PTK6 (human) = PTK6 (human) (UniProt Q13882)
CSF1R (human) = CSF1R (human) (UniProt P07333)
PI4KB (human) = PI4KB (human) (UniProt Q9UBF8)
MAPK1 (human) = MAPK1 (human) (UniProt P28482)
CSNK1E (human) = CSNK1E (human) (UniProt P49674)
MAPK9 (human) = MAPK9 (human) (UniProt P45984)
MST1R (human) = MST1R (human) (UniProt Q04912)
[2] = target: JAK3 JH1 catalytic (human) (UniProt P52333)
FGFR1 (human) = FGFR1 (human) (UniProt P11362)
MLTK (human) = MLTK (human) (UniProt Q9NYL2)
EPHA8 (human) = EPHA8 (human) (UniProt P29322)
MAP2K2 (human) = MAP2K2 (human) (UniProt P36507)
CDK14 (human) = CDK14 (human) (UniProt O94921)
HIPK2 (human) = HIPK2 (human) (UniProt Q9H2X6)
CSNK1G2 (human) = CSNK1G2 (human) (UniProt P78368)
DCLK2 (human) = DCLK2 (human) (UniProt Q8N568)
RIOK1 (human) = RIOK1 (human) (UniProt Q9BRS2)
MAPKAPK5 (human) = MAPKAPK5 (human) (UniProt Q8IW41)
MAP3K2 (human) = MAP3K2 (human) (UniProt Q9Y2U5)
CHUK (human) = CHUK (human) (UniProt O15111)
BLK (human) = BLK (human) (UniProt P51451)
PIP4K2B (human) = PIP4K2B (human) (UniProt P78356)
PKN1 (human) = PKN1 (human) (UniProt Q16512)
CSNK1G3 (human) = CSNK1G3 (human) (UniProt Q9Y6M4)
TGFBR2 (human) = TGFBR2 (human) (UniProt P37173)
STK38L (human) = STK38L (human) (UniProt Q9Y2H1)
NIM1 (human) = NIM1 (human) (UniProt Q8IY84)
ERBB4 (human) = ERBB4 (human) (UniProt Q15303)
FER (human) = FER (human) (UniProt P16591)
PRKD2 (human) = PRKD2 (human) (UniProt Q9BZL6)
STK11 (human) = STK11 (human) (UniProt Q15831)
GAK (human) = GAK (human) (UniProt O14976)
PIM3 (human) = PIM3 (human) (UniProt Q86V86)

CSF1R (human), sequence (P07333 whole entry, looked up): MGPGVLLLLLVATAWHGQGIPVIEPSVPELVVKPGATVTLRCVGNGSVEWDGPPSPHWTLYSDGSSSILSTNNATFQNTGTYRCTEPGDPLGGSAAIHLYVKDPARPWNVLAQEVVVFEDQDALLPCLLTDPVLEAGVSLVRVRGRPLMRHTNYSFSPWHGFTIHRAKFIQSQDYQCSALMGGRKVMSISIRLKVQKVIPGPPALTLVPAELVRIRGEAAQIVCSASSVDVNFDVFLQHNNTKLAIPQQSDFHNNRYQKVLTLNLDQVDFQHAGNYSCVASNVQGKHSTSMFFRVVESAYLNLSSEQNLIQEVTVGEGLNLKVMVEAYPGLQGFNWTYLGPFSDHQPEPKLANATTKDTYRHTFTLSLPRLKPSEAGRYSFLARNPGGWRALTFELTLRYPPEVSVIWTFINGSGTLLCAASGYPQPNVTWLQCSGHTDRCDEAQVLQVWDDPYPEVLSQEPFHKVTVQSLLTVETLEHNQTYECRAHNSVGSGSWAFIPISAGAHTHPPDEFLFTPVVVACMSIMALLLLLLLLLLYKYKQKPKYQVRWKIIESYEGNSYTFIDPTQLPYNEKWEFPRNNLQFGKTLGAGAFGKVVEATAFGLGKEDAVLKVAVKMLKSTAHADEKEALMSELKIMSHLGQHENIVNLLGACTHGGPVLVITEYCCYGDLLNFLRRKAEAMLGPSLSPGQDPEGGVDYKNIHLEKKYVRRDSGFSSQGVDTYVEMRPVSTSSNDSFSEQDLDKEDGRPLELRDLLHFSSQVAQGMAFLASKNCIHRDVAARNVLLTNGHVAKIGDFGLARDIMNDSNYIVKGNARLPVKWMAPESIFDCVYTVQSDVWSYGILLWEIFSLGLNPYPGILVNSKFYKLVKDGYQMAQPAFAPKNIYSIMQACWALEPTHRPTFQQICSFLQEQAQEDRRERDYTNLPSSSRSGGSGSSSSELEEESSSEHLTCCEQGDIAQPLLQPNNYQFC
CDK14 (human), sequence (O94921 whole entry, looked up): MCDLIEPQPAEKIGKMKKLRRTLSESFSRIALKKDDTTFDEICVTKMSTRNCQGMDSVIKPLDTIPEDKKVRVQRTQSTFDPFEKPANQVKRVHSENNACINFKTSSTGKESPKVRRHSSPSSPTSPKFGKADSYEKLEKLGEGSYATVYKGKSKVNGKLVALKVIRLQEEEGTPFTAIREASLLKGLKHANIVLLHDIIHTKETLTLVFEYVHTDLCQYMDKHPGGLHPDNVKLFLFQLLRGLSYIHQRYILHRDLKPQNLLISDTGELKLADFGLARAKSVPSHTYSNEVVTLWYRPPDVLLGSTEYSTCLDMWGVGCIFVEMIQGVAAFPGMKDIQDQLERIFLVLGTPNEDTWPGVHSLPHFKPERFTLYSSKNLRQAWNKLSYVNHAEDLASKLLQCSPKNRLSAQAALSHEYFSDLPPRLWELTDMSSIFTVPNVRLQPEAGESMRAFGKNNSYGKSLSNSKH
JAK3 JH1 catalytic (human), sequence (P52333 whole entry, looked up): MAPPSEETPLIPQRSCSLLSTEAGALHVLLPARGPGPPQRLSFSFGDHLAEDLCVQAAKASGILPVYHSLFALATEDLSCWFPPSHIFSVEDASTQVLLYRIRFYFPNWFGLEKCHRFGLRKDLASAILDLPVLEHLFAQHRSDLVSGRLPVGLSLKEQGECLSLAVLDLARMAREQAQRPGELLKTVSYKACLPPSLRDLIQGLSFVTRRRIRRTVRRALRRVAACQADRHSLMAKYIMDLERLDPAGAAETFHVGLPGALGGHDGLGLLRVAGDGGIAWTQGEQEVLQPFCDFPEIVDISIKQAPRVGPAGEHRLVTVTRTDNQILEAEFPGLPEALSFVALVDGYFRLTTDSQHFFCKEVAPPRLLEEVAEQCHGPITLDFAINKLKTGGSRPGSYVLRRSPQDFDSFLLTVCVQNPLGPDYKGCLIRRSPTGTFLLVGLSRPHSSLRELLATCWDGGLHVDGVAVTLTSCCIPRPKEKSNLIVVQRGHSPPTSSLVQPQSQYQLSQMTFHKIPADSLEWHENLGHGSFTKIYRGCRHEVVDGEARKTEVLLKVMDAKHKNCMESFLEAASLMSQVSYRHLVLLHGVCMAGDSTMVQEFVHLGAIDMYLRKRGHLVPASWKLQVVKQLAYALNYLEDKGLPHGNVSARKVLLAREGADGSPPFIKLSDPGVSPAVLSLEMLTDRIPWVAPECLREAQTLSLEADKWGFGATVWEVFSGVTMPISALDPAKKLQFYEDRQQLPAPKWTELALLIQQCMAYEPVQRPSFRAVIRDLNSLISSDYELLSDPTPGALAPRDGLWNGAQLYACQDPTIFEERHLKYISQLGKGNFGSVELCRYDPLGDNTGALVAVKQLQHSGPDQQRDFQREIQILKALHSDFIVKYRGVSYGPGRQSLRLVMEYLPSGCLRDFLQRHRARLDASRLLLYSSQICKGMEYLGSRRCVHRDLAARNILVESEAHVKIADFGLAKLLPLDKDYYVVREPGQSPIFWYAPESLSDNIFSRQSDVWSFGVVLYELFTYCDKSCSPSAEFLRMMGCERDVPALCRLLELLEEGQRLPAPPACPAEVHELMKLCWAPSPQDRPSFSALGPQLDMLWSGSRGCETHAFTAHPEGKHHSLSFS
MAPK1 (human), sequence (P28482 whole entry, looked up): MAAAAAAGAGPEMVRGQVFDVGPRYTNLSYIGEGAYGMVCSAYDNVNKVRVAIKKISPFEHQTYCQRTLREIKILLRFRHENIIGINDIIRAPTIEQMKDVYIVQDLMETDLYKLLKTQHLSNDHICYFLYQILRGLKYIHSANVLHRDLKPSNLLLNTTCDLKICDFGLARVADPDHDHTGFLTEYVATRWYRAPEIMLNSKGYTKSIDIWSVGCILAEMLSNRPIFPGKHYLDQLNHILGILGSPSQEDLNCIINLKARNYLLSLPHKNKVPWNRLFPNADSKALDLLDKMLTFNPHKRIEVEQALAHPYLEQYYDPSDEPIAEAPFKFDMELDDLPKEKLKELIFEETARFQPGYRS
CHUK (human), sequence (O15111 whole entry, looked up): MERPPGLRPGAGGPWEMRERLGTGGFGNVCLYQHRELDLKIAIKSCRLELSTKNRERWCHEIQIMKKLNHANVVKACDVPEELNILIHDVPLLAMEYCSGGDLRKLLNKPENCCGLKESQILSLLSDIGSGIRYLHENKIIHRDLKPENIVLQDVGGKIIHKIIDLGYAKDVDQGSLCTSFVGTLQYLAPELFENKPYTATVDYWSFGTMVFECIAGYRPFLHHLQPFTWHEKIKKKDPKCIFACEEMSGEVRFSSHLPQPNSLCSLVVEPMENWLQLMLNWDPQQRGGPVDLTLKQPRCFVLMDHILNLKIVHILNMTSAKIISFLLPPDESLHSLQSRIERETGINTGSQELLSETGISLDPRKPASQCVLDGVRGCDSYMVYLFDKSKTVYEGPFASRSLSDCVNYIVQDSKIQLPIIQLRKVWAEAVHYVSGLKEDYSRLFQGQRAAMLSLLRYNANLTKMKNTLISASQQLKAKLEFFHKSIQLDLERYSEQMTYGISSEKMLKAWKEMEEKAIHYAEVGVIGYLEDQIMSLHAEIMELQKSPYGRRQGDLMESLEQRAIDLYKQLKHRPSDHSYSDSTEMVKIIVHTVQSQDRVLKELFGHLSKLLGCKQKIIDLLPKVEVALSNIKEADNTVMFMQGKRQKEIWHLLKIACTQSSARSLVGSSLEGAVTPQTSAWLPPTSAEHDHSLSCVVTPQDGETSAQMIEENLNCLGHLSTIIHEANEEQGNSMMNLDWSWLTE
PRKD2 (human), sequence (Q9BZL6 whole entry, looked up): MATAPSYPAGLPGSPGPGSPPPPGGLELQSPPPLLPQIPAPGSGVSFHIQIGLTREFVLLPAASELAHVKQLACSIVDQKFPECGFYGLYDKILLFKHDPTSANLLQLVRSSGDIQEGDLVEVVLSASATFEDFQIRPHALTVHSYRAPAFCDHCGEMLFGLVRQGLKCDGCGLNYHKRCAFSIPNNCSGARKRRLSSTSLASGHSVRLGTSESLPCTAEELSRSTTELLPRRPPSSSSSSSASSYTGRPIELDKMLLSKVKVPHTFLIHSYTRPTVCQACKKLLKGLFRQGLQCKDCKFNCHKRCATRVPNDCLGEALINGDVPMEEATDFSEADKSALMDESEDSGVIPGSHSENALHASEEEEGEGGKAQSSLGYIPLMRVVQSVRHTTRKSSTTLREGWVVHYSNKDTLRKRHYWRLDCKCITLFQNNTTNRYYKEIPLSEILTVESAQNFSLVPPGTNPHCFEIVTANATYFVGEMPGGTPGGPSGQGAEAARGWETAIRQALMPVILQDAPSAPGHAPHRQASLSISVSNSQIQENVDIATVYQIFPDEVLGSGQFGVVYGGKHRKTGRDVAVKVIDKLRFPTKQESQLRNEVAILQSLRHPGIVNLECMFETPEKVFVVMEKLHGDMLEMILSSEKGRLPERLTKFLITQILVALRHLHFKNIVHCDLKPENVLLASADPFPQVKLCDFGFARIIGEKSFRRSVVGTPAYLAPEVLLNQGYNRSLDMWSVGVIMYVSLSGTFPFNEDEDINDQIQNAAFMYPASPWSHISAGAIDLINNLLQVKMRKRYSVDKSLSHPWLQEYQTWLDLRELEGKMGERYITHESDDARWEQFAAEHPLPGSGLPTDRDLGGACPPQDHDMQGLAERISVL

Row | SMILES | kinase still bound, per cent of control (RIPK2 (human)) | kinase still bound, per cent of control [1] | kinase still bound, per cent of control (IKBKB (human)) | kinase still bound, per cent of control (NLK (human)) | kinase still bound, per cent of control (MELK (human)) | kinase still bound, per cent of control (PAK6 (human)) | kinase still bound, per cent of control (MAP2K3 (human)) | kinase still bound, per cent of control (PTK6 (human)) | kinase still bound, per cent of control (CSF1R (human)) | kinase still bound, per cent of control (PI4KB (human)) | kinase still bound, per cent of control (MAPK1 (human)) | kinase still bound, per cent of control (CSNK1E (human)) | kinase still bound, per cent of control (MAPK9 (human)) | kinase still bound, per cent of control (MST1R (human)) | kinase still bound, per cent of control [2] | kinase still bound, per cent of control (FGFR1 (human)) | kinase still bound, per cent of control (MLTK (human)) | kinase still bound, per cent of control (EPHA8 (human)) | kinase still bound, per cent of control (MAP2K2 (human)) | kinase still bound, per cent of control (CDK14 (human)) | also measured
1 | Cc1cn(-c2cc(C(=O)Nc3ccc(C)c(NC(=O)c4ccno4)c3)cc(C(F)(F)F)c2)cn1 | 100% | 100% | 100% | 100% | 100% | 100% | 100% | 24% | 0.2% | 100% | 100% | 100% | 100% | 100% | 100% | 100% | 7.8% | 0.3% | 100% | 100% | kinase still bound, per cent of control (HIPK2 (human)): 100%; kinase still bound, per cent of control (CSNK1G2 (human)): 100%; kinase still bound, per cent of control (DCLK2 (human)): 100%; kinase still bound, per cent of control (RIOK1 (human)): 100%; kinase still bound, per cent of control (MAPKAPK5 (human)): 100%; kinase still bound, per cent of control (MAP3K2 (human)): 100%; kinase still bound, per cent of control (CHUK (human)): 100%; kinase still bound, per cent of control (BLK (human)): 15%; kinase still bound, per cent of control (PIP4K2B (human)): 100%; kinase still bound, per cent of control (PKN1 (human)): 100%; kinase still bound, per cent of control (CSNK1G3 (human)): 100%; kinase still bound, per cent of control (TGFBR2 (human)): 100%; kinase still bound, per cent of control (STK38L (human)): 100%; kinase still bound, per cent of control (NIM1 (human)): 100%; kinase still bound, per cent of control (ERBB4 (human)): 100%; kinase still bound, per cent of control (FER (human)): 100%; kinase still bound, per cent of control (PRKD2 (human)): 100%; kinase still bound, per cent of control (STK11 (human)): 100%; kinase still bound, per cent of control (GAK (human)): 100%; kinase still bound, per cent of control (PIM3 (human)): 100%
2 | COc1cc2ncnc(Nc3cccc(Cl)c3)c2cc1OC | 19% | 84% | 66% | 43% | 74% | 94% | 57% | 58% | 72% and 91% | 44% | 100% | 32% | 18% | 100% | 38% | 87% | 94% | 38% | 25% | 88% | kinase still bound, per cent of control (HIPK2 (human)): 80%; kinase still bound, per cent of control (CSNK1G2 (human)): 83%; kinase still bound, per cent of control (DCLK2 (human)): 88%; kinase still bound, per cent of control (RIOK1 (human)): 65%; kinase still bound, per cent of control (MAPKAPK5 (human)): 9.9%; kinase still bound, per cent of control (MAP3K2 (human)): 30%; kinase still bound, per cent of control (CHUK (human)): 72%; kinase still bound, per cent of control (BLK (human)): 7.1%; kinase still bound, per cent of control (PIP4K2B (human)): 97%; kinase still bound, per cent of control (PKN1 (human)): 94%; kinase still bound, per cent of control (CSNK1G3 (human)): 100%; kinase still bound, per cent of control (TGFBR2 (human)): 91%; kinase still bound, per cent of control (STK38L (human)): 87%; kinase still bound, per cent of control (NIM1 (human)): 77%; kinase still bound, per cent of control (ERBB4 (human)): 3.5%; kinase still bound, per cent of control (FER (human)): 82%; kinase still bound, per cent of control (PRKD2 (human)): 86%; kinase still bound, per cent of control (STK11 (human)): 86%; kinase still bound, per cent of control (GAK (human)): 0%; kinase still bound, per cent of control (PIM3 (human)): 54%

— the kinase profiling compilation of Christmann-Franck et al. (2016)
